Data reported in patent US4672057A, “Morpholino derivatives of daunorubicin and doxorubicin” (priority 1985, dated 1987).
≈ marks a conversion by molar mass, not a printed value. Like-named read-outs stand apart in the source and are kept apart here.

Experiments:
[1] = system: HeLa cells; test: Colony inhibition test against HeLa cells in vitro; type: cell-based; settings: Homo sapiens
Excerpt: The compounds have been tested in several experimental systems in order to ascertain their cytotoxicity and antitumor activity in experimental animals.
Colony inhibition test against HeLa cells
in vitro (treatment for 24 hrs)

[2] = system: Gross leukemia; test: Activity on Gross leukemia in C3H mice; type: in vivo; settings: for LTS (long term survivors, >60 days) / Toxic deaths / T/C %: iv on day 1; for Toxic deaths: autopsy findings; for T/C %: median survival time; for potency versus doxorubicin in Gross leukemia: iv on day 1 after tumor inoculation
Experimental: (§1) The primary screening in vivo was carried out in CDF-1 mice bearing P388 ascetic leukemia (10^6 cells/mouse). […] The doxorubicin analogs II, IV, VI have been tested in C3H mice bearing the Gross leukemia injected iv (2×10^6 cell/mouse). […] Compound II has been studied on P388 leukemia cells resistant to doxorubicin (P388/DX) in vitro and in vivo. Cytotoxicity tests were carried out exposing the cells to various drug concentrations for 48 hrs. At the end of exposure period cells were counted with a coulter cell counter, and the ID50 (dose which gives 50% reduction of the cell number in comparison with untreated controls) was calculated. […] Compound II has been tested also in vivo in BDF-1 mice bearing P388/DX leukemia.
Activity on Gross leukemia (IV-1)

[3] = system: P388 leukemia; test: Antitumor activity against P388 leukemia in CDF-1 mice; type: in vivo; settings: for LTS (long term survivors, >60 days) / Toxic deaths / T/C %: ip on day 1; for Toxic deaths: autopsy findings; for T/C %: median survival time
Experimental: as §1
Antitumor activity against P388 leukemia
^a Median survival time; % over untreated controls
^b Long term survivors (>60 days)
^c Evaluated on the basis of autopsy findings on dead mice

[4] = system: P388 leukemia cells; test: Cytotoxicity test on doxorubicin-sensitive P388 leukemia cells in vitro; type: cell-based; settings: for IC50: Mus musculus
Experimental: as §1
(§2) Effect on sensitive and doxorubicin-resistant
(§3) ^a Dose giving 50% reduction of cell number in comparison with
^b P388 leukemia cells sensitive to doxorubicin

[5] = system: P388/DX leukemia; test: Effect on doxorubicin-resistant P388 leukemia (P388/DX) in vivo; parameters: species or system BDF-1 mice; settings: for Toxic deaths: autopsy findings; for T/C: median survival time
Experimental: as §1
Effect on doxorubicin-resistant P388 leukemia

[6] = system: P388/DX leukemia cells; test: Cytotoxicity test on doxorubicin-resistant P388 leukemia cells (P388/DX) in vitro; type: cell-based; settings: for activity on P388/DX leukemia cells: P388/DX cells in vitro, 48 hrs
Experimental: as §1, §2, §3
^c P388 leukemia cells resistant to doxorubicin

[7] = compared with doxorubicin, P388 leukemia in mice
[8] = HeLa cells, colony inhibition, treatment for 24 hrs, read-out: ID50 (the source's name)

## COc1cccc2c1C(=O)c1c(O)c3c(c(O)c1C2=O)C[C@@](O)(C(C)=O)C[C@@H]3O[C@H]1C[C@H](N2CC(C)OC(OC)C2)[C@H](O)[C@H](C)O1 (stereo partly shown) [III, 3'-deamino-3'-(2"-methoxy-6"-methyl-4"-morpholinyl)daunorubicin]
[1]; HeLa, 24 h, read-out: ID50
  IC50: 1.8 ng/mL (≈ 2.81 nM)

## COc1cccc2c1C(=O)c1c(O)c3c(c(O)c1C2=O)C[C@@](O)(C(=O)CO)C[C@@H]3O[C@H]1C[C@H](N2CC(CO)OC(OC)C2)[C@H](O)[C@H](C)O1 (stereo partly shown) [VI, 3'-deamino-3'-(2"-methoxy-6"-hydroxymethyl-4"-morpholinyl)doxorubicin]
[2]; 2 mg/Kg
  LTS (long term survivors, >60 days): 0/10
  Toxic deaths: 0/10
  T/C %: 150%
[2]
  potency versus doxorubicin in Gross leukemia: more potent than doxorubicin
[3]; 1.33 mg/Kg
  LTS (long term survivors, >60 days): 0/10
  Toxic deaths: 0/10
  T/C %: 164%
[3]; 2.0 mg/Kg
  LTS (long term survivors, >60 days): 0/10
  Toxic deaths: 0/10
  T/C %: 195%
[3]; [7]
  potency versus the parent drug: more potent than the parent drug
[1]; HeLa, 24 h, read-out: ID50
  IC50: 9 ng/mL (≈ 13.4 nM)

## COc1cccc2c1C(=O)c1c(O)c3c(c(O)c1C2=O)C[C@@](O)(C(=O)CO)C[C@@H]3O[C@H]1C[C@H](N)[C@H](O)[C@H](C)O1 [Doxorubicin, doxorubicin]
[2]; 10 mg/Kg
  LTS (long term survivors, >60 days): 0/10
  Toxic deaths: 0/10
  T/C %: 183%
[2]; 13 mg/Kg
  LTS (long term survivors, >60 days): 0/10
  Toxic deaths: 0/10
  T/C %: 200%
[3]; 6.6 mg/Kg
  LTS (long term survivors, >60 days): 0/10
  Toxic deaths: 0/10
  T/C %: 214%
[3]; 10 mg/Kg
  LTS (long term survivors, >60 days): 1/10
  Toxic deaths: 0/10
  T/C %: 214%
[4]; P388 sensitive to doxorubicin, 48 hrs exposure, cell count, read-out: ID50 (the source's name)
  IC50: 12 ng/mL (≈ 22.1 nM)
[5]; 4.4 mg/Kg
  LTC (long term survivors, >60 days): 0/10
  Toxic deaths: 0/10
  T/C: 110%
[5]; 6.6 mg/Kg
  LTC (long term survivors, >60 days): 0/10
  Toxic deaths: 0/10
  T/C: 100%
[1]; [8]
  IC50: 18 ng/mL (≈ 33.1 nM)
[6]
  activity on P388/DX leukemia cells: inactive
[6]; P388/DX resistant to doxorubicin, 48 hrs exposure, cell count, read-out: ID50 (the source's name)
  IC50: 1500 ng/mL (≈ 2760 nM)

## COc1cccc2c1C(=O)c1c(O)c3c(c(O)c1C2=O)C[C@@](O)(C(C)=O)C[C@@H]3O[C@H]1C[C@H](N2CC(CO)OC(OC)C2)[C@H](O)[C@H](C)O1 (stereo partly shown) [V, 3'-deamino-3'-(2"-methoxy-6"-hydroxymethyl-4"-morpholinyl)daunorubicin]
[3]; 2.0 mg/Kg
  LTS (long term survivors, >60 days): 0/10
  Toxic deaths: 0/10
  T/C %: 145%
[3]; 3.0 mg/Kg
  LTS (long term survivors, >60 days): 0/10
  Toxic deaths: 0/10
  T/C %: 164%
[3]; same optimal dose, P388 leukemia in mice
  activity versus daunorubicin (increase of mice life span): more active than daunorubicin
[1]; HeLa, 24 h, read-out: ID50
  IC50: 10.5 ng/mL (≈ 16 nM)

## COc1cccc2c1C(=O)c1c(O)c3c(c(O)c1C2=O)C[C@@](O)(C(=O)CO)C[C@@H]3O[C@H]1C[C@H](N2CCOC(OC)C2)[C@H](O)[C@H](C)O1 (stereo partly shown) [Compound II, 3'-deamino-3'-(2"-methoxy-4"-morpholinyl)doxorubicin]
[2]; 0.16 mg/Kg
  LTS (long term survivors, >60 days): 0/10
  Toxic deaths: 0/10
  T/C %: 150%
[2]
  potency versus doxorubicin in Gross leukemia: more potent than doxorubicin
[3]; 0.15 mg/Kg
  LTS (long term survivors, >60 days): 2/10
  Toxic deaths: 0/10
  T/C %: 295%
[3]; [7]
  efficacy versus the parent drug: exhibits a major efficacy
  potency versus the parent drug: more potent than the parent drug
  times more potent than the parent drug: 60 times
[4]; P388, 48 h, read-out: ID50
  IC50: 0.3 ng/mL (≈ 0.466 nM)
[4]; P388 leukemia cells
  times more cytotoxic than doxorubicin: 40 times
[5]; 0.075 mg/Kg
  LTC (long term survivors, >60 days): 0/10
  Toxic deaths: 0/10
  T/C: 100%
[5]; 0.15 mg/Kg
  LTC (long term survivors, >60 days): 0/10
  Toxic deaths: 1/10
  T/C: 165%
[5]; BDF-1 mice, 0.15 mg/Kg
  activity in P388/DX leukemia in vivo: very active
[1]; HeLa, 24 h, read-out: ID50
  IC50: 0.96 ng/mL (≈ 1.49 nM)
[6]
  activity on P388/DX leukemia cells: very active
[6]; P388/DX, 48 h, read-out: ID50
  IC50: 3 ng/mL (≈ 4.66 nM)

## COc1cccc2c1C(=O)c1c(O)c3c(c(O)c1C2=O)C[C@@](O)(C(=O)CO)C[C@@H]3O[C@H]1C[C@H](N2CC(C)OC(OC)C2)[C@H](O)[C@H](C)O1 (stereo partly shown) [IV, 3'-deamino-3'-(2"-methoxy-6"-methyl-4"-morpholinyl)doxorubicin]
[2]; 0.27 mg/Kg
  LTS (long term survivors, >60 days): 0/10
  Toxic deaths: 0/10
  T/C %: 142%
[2]
  potency versus doxorubicin in Gross leukemia: more potent than doxorubicin
[3]; 0.2 mg/Kg
  LTS (long term survivors, >60 days): 0/10
  Toxic deaths: 0/10
  T/C %: 173%
[3]; [7]
  potency versus the parent drug: more potent than the parent drug
[1]; HeLa, 24 h, read-out: ID50
  IC50: 0.32 ng/mL (≈ 0.487 nM)

## COc1cccc2c1C(=O)c1c(O)c3c(c(O)c1C2=O)C[C@@](O)(C(C)=O)C[C@@H]3O[C@H]1C[C@H](N)[C@H](O)[C@H](C)O1 [Daunorubicin, daunorubicin]
[3]; 2.9 mg/Kg
  LTS (long term survivors, >60 days): 0/10
  Toxic deaths: 0/10
  T/C %: 145%
[3]; 4.4 mg/Kg
  LTS (long term survivors, >60 days): 0/10
  Toxic deaths: 1/10
  T/C %: 150%
[1]; [8]
  IC50: 18.6 ng/mL (≈ 35.3 nM)

## COc1cccc2c1C(=O)c1c(O)c3c(c(O)c1C2=O)C[C@@](O)(C(C)=O)C[C@@H]3O[C@H]1C[C@H](N2CCOC(OC)C2)[C@H](O)[C@H](C)O1 (stereo partly shown) [Compound I, 3'-deamino-3'-(2"-methoxy-4"-morpholinyl)daunorubicin]
[3]; 0.13 mg/Kg
  LTS (long term survivors, >60 days): 0/10
  Toxic deaths: 0/10
  T/C %: 136%
[1]; HeLa, 24 h, read-out: ID50
  IC50: 2 ng/mL (≈ 3.19 nM)
